Test results from patent US20060270648A1, “USE OF POLYAMINES WITH ANTIBIOTICS” (priority 2005, published 2006).
Values after ≈ are worked out from the molar mass of the structure shown. Where two headings read alike, the source gives them in different places.

Columns and labels:
[1] = test system: methicillin resistant Staphylococcus aureus (MRSA) Mu50; test: MIC of antibiotics against MRSA Mu50 with or without spermine; type: cell-based; settings: for MIC: Staphylococcus aureus, MRSA, read-out: MICs in the presence or absence of spermine (1 mM): No add; for MIC / MICs in the presence or absence of spermine (1 mM): No add: no spermine; for MICs in the presence or absence of spermine (1 mM): Spermine: with 1 mM spermine
[2] = test system: MRSA Staphylococcus aureus 700699; test: MIC of antibiotics against MRSA Staphylococcus aureus 700699 with or without spermine; type: cell-based; settings: for MIC: Staphylococcus aureus, MRSA, read-out: MICs in the absence or presence of spermine: No add; for MICs in the absence or presence of spermine: Spermine (1 mM): with 1 mM spermine
[3] = test system: E. coli (K10, K12, C921-61); test: MIC of antibiotics against E. coli strains with or without polyamines (FIG. 3); type: cell-based; settings: E. coli K10, K12, C921-61 and S. typhimurium LT2
[4] = test system: Salmonella typhimurium LT2; test: microbe, parasite or virus in culture; settings: Salmonella enterica, read-out: MICs in the indicated concentrations (mM) of polyamines: No add;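 further: Two-fold agar or broth dilution in Mueller-Hinton broth, MIC taken as lowest drug concentration without visible turbidity, tested alone or combined with polyamines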
[5] = test system: Salmonella typhimurium LT2; settings: for MICs in the indicated concentrations (mM) of polyamines: Spermine (1 mM): with 1 mM spermine; for MICs in the indicated concentrations (mM) of polyamines: Spermidine (20 mM): with 20 mM spermidine;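 on all read-outs here: Two-fold agar or broth dilution in Mueller-Hinton broth, MIC taken as lowest drug concentration without visible turbidity, tested alone or combined with polyamines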
P. aeruginosa PAO1 = test: MIC of antibiotics against P. aeruginosa PAO1 with or without polyamines; type: cell-based

Row | Compound | MIC [1] [µg/mL] | MICs in the presence or absence of spermine (1 mM): Spermine [1] [µg/mL] | MIC ([2]; no spermine) [µg/mL] | MICs in the absence or presence of spermine: Spermine (1 mM) [2] [µg/mL] | susceptibility with the combination of polyamines and antibiotics [3] | MIC [4] [µg/mL] | MICs in the indicated concentrations (mM) of polyamines: Spermine (1 mM) [5] [µg/mL] | MICs in the indicated concentrations (mM) of polyamines: Spermidine (20 mM) [5] [µg/mL] | further results
1 | CC1(C)S[C@@H]2[C@H](NC(=O)[C@H](N)c3ccc(O)cc3)C(=O)N2[C@H]1C(=O)O [Amoxicillin] | 16 | 0.5 | 16 | 0.5 | – | – | – | – | –
2 | CC1(C)S[C@@H]2[C@H](NC(=O)[C@H](N)c3ccccc3)C(=O)N2[C@H]1C(=O)O [Ampicillin] | ≥ 32 | 2 | ≥ 32 | 2 | improved susceptibility | 16 (≈ 45.8 µM) | – | – | –
3 | CC1(C)S[C@@H]2[C@H](NC(=O)[C@H](NC(=O)N3CCNC3=O)c3ccccc3)C(=O)N2[C@H]1C(=O)O [Azlocillin] | 16 | 0.5 | 16 | 0.5 | improved susceptibility | 16 (≈ 34.7 µM) | 4 | 1 | –
4 | C[C@H]1[C@H](NC(=O)/C(=N\OC(C)(C)C(=O)O)c2csc(N)n2)C(=O)N1S(=O)(=O)O [Aztreonam] | – | – | > 1020 | >256 | – | – | – | – | –
5 | NCCCCCN [Cadaverine] | – | – | – | – | – | – | – | – | MICs to carbenicillin in the indicated concentration of polyamines (P. aeruginosa PAO1; 0 mM polyamine): 64 µg/mL; MICs to carbenicillin in the indicated concentration of polyamines (P. aeruginosa PAO1; 0.5 mM polyamine): 64 µg/mL; MICs to carbenicillin in the indicated concentration of polyamines (P. aeruginosa PAO1; 1 mM polyamine): 32 µg/mL; MICs to carbenicillin in the indicated concentration of polyamines (P. aeruginosa PAO1; 5 mM polyamine): 32 µg/mL; MICs to carbenicillin in the indicated concentration of polyamines (P. aeruginosa PAO1; 10 mM polyamine): 32 µg/mL; MICs to carbenicillin in the indicated concentration of polyamines (P. aeruginosa PAO1; 20 mM polyamine): 16 µg/mL
6 | CCN1CCN(C(=O)N[C@@H](C(=O)N[C@@H]2C(=O)N3C(C(=O)O)=C(CSc4nnnn4C)CS[C@H]23)c2ccc(O)cc2)C(=O)C1=O [Cefoperazone] | > 512 | 16 | > 512 | >4 | – | – | – | – | –
7 | CO/N=C(\C(=O)N[C@@H]1C(=O)N2C(C(=O)O)=C(COC(C)=O)CS[C@H]12)c1csc(N)n1 [Cefotaxime] | 128 | 1 | 128 | 1 | – | – | – | – | –
8 | CC(C)(O/N=C(\C(=O)N[C@@H]1C(=O)N2C(C(=O)[O-])=C(C[n+]3ccccc3)CS[C@H]12)c1csc(N)n1)C(=O)O [Ceftazidime] | 256 | 4 | 256 | 4 | – | – | – | – | –
9 | CO/N=C(\C(=O)N[C@@H]1C(=O)N2C(C(=O)O)=C(CSc3nc(=O)c(=O)[nH]n3C)CS[C@H]12)c1csc(N)n1 [Ceftriaxone] | > 512 | 16 | > 512 | 16 | – | – | – | – | –
10 | O=C(Cc1cccs1)N[C@@H]1C(=O)N2C(C(=O)[O-])=C(C[n+]3ccccc3)CS[C@H]12 [Cephaloridine] | 16 | 0.25 | 16 | 0.25 | – | – | – | – | –
11 | CC(=O)OCC1=C(C(=O)O)N2C(=O)[C@@H](NC(=O)CCC[C@@H](N)C(=O)O)[C@H]2SC1 [Cephalosporin C] | – | – | – | >128 | – | – | – | – | MICs in the absence or presence of spermine: No add ([2]; no spermine): >512 µg/mL
12 | CC(=O)OCC1=C(C(=O)O)N2C(=O)[C@@H](NC(=O)Cc3cccs3)[C@H]2SC1 [Cephalothin] | 32 | 4 | 32 | 4 | – | – | – | – | –
13 | O=C(N[C@H](CO)[C@H](O)c1ccc([N+](=O)[O-])cc1)C(Cl)Cl [Chloramphenicol] | 8 | 2 | 8 | 2 | improved susceptibility | 2 (≈ 6.19 µM) | 1 | 1 | –
14 | Cc1onc(-c2ccccc2Cl)c1C(=O)N[C@@H]1C(=O)N2[C@@H]1SC(C)(C)[C@@H]2C(=O)O [Cloxacillin] | ≥ 256 | 1 | > 256 | 2 | – | – | – | – | –
15 | NC[C@H]1O[C@H](O[C@H]2[C@H](O)[C@@H](O[C@H]3O[C@H](CO)[C@@H](O)[C@H](N)[C@H]3O)[C@H](N)C[C@@H]2N)[C@H](O)[C@@H](O)[C@@H]1O [Kanamycin] | – | – | > 16 | >16 | – | 4 (≈ 8.26 µM) | 2 | 4 | –
16 | CO[C@@]1(NC(=O)C(C(=O)O)c2ccc(O)cc2)C(=O)N2C(C(=O)O)=C(CSc3nnnn3C)CO[C@@H]21 (stereo partly drawn) [Moxalactam] | – | – | > 512 | >32 | – | – | – | – | –
17 | CCn1cc(C(=O)O)c(=O)c2cc(F)c(N3CCNCC3)cc21 [Norfioxacin] | – | 64 | – | – | – | – | – | – | MICs in the presence or absence of spermine (1 mM): No add [1]: 128 µg/mL
18 | Cc1onc(-c2ccccc2)c1C(=O)N[C@@H]1C(=O)N2[C@@H]1SC(C)(C)[C@@H]2C(=O)O [Oxacillin] | ≥ 256 | 1 | ≥ 256 | 2 | improved susceptibility | 256 (≈ 638 µM) | – | 64 | decrease of MIC with exogenous spermine ([1]; spermine 1 mM and less): over 100 fold
19 | CC1(C)S[C@@H]2[C@H](NC(=O)Cc3ccccc3)C(=O)N2[C@H]1C(=O)O [Penicillin G] | – | 0.25 | – | 0.25 | improved susceptibility | – | 2 | 2 | MICs in the presence or absence of spermine (1 mM): No add [1]: 16 µg/mL; MICs in the absence or presence of spermine: No add ([2]; no spermine): 16 µg/mL; MICs in the indicated concentrations (mM) of polyamines: No add ([5]; no polyamine): 16 µg/mL
20 | CCN1CCN(C(=O)N[C@@H](C(=O)N[C@@H]2C(=O)N3[C@@H]2SC(C)(C)[C@@H]3C(=O)O)c2ccccc2)C(=O)C1=O [Piperacillin] | 32 | 2 | 32 | 2 | improved susceptibility | 4 (≈ 7.73 µM) | 0.5 | 0.25 | –
21 | NCCCCN [Putrescine] | – | – | – | – | – | – | – | – | MICs to carbenicillin in the indicated concentration of polyamines (P. aeruginosa PAO1; 0 mM polyamine): 64 µg/mL; MICs to carbenicillin in the indicated concentration of polyamines (P. aeruginosa PAO1; 0.5 mM polyamine): 64 µg/mL; MICs to carbenicillin in the indicated concentration of polyamines (P. aeruginosa PAO1; 1 mM polyamine): 32 µg/mL; MICs to carbenicillin in the indicated concentration of polyamines (P. aeruginosa PAO1; 5 mM polyamine): 32 µg/mL; MICs to carbenicillin in the indicated concentration of polyamines (P. aeruginosa PAO1; 10 mM polyamine): 32 µg/mL; MICs to carbenicillin in the indicated concentration of polyamines (P. aeruginosa PAO1; 20 mM polyamine): 16 µg/mL
22 | CN[C@@H]1[C@H](O)[C@H](NC)[C@H]2O[C@@]3(O)C(=O)C[C@@H](C)O[C@H]3O[C@@H]2[C@H]1O [Spectinomycin] | – | – | – | – | improved susceptibility | 32 (≈ 96.3 µM) | 32 | 32 | –
23 | CN(C)[C@@H]1C(O)=C(C(N)=O)C(=O)[C@@]2(O)C(O)=C3C(=O)c4c(O)cccc4[C@@](C)(O)[C@H]3C[C@@H]12 [Tetracycline] | 32 | 8 | 32 | 4 | – | 2 (≈ 4.5 µM) | 2 | 2 | –
24 | CC1(C)S[C@@H]2[C@H](NC(=O)[C@H](C(=O)O)c3ccsc3)C(=O)N2[C@H]1C(=O)O [Ticarcillin] | 256 | 4 | 256 | 4 | improved susceptibility | 4 (≈ 10.4 µM) | 0.5 | 1 | –
25 | CN[C@H](CC(C)C)C(=O)N[C@H]1C(=O)N[C@@H](CC(N)=O)C(=O)N[C@H]2C(=O)N[C@H]3C(=O)N[C@H](C(=O)N[C@H](C(=O)O)c4cc(O)cc(O)c4-c4cc3ccc4O)[C@H](O)c3ccc(c(Cl)c3)Oc3cc2cc(c3O[C@@H]2O[C@H](CO)[C@@H](O)[C@H](O)[C@H]2O[C@H]2C[C@](C)(N)[C@H](O)[C@H](C)O2)Oc2ccc(cc2Cl)[C@H]1O [Vancomycin] | – | – | – | 4 | – | – | – | – | MIC [2]: 4 µg/mL
26 | Gentamicin | – | – | – | 256 | – | – | – | – | MICs in the absence or presence of spermine: No add ([2]; no spermine): 256 µg/mL
